Measured values reported in patent publication US20100166933A1, “Frozen Confectionery and Beverage Products” (priority 2008, published 2010).

How the values were obtained:
[1] = Human crossover study, systolic blood pressure (Example 4); settings: theobromine 700 mg, caffeine 120 mg; for Change in systolic blood pressure, 1 hour: 1 hour after treatment; for Change in systolic blood pressure, 1 hour / Change in systolic blood pressure, 3 hours / Change in systolic blood pressure, Time zero: gelatine capsule; for Change in systolic blood pressure, 3 hours: 3 hours after treatment
Text: (§1) Volunteers consumed one of 4 treatments: theobromine only, caffeine only, theobromine and caffeine combined or placebo. […] Theobromine was pharmaceutical grade, supplied by Fagron, Netherlands. […] The placebo capsules matched in appearance and were filled with Avicel (microcrystalline cellulose). The gelatin capsules (size 1) were supplied by Blockland Medical supplies and meet European Pharmacopoeia (Ph. Eur) standards. […] Twenty-four healthy volunteers took part and arrived at the laboratory having consumed a standard lunch and having abstained from theobromine- and caffeine-containing foods such as chocolate for 12 hours. At the start of each session, participants answered a baseline set of questionnaires, which took approximately 15 minutes to complete. On completion, they were given a 10 minute break in which to consume the capsules. The questionnaire was repeated 1, 2 and 3 hours after ingestion. Blood pressure was measured at 0, 1 and 3 hours after treatment. Participants were allowed to read quietly between test batteries.

[2] = Human crossover study, Bond-Lader mood questionnaire: alertness (Example 4); type: in vivo; settings: theobromine 700 mg, caffeine 120 mg, gelatine capsule; for Alertness score in Bond-Lader test, 1 hour: 1 hour after ingestion; for Alertness score in Bond-Lader test, 2 hours: 2 hours after ingestion; for Alertness score in Bond-Lader test, 3 hours: 3 hours after ingestion; for Alertness score in Bond-Lader test, Time zero: time zero (baseline), 24 healthy volunteers
Text: as §1

Row | SMILES | Change in systolic blood pressure, 1 hour [1] | Change in systolic blood pressure, 3 hours [1] | Change in systolic blood pressure, Time zero [1] [Hgmm] | Alertness score in Bond-Lader test, 1 hour [2] | Alertness score in Bond-Lader test, 2 hours [2] | Alertness score in Bond-Lader test, 3 hours [2] | Alertness score in Bond-Lader test, Time zero [2] | Effect on systolic blood pressure after 1 hour (in words) ([1]; after 1 hour)
1 | Cn1cnc2c1c(=O)[nH]c(=O)n2C [Theobromine, 3,7-dimethylxanthine] | +3 Hgmm | +4 Hgmm | 0 | −0.06 | −0.03 | −0.01 | 0 | –
2 | Cn1c(=O)c2c(ncn2C)n(C)c1=O [Caffeine, 1,3,7-trimethylxanthine] | +10 Hgmm | −3 Hgmm | 0 | +0.01 | +0.05 | +0.07 | 0 | rise in systolic blood pressure (significantly higher than placebo)
